PubChem BioAssay (NCI)
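Exposure lasted 48 hours, with cells grown in 96-well plates and compounds tested at five concentrations. TGI denotes the concentration required for complete inhibition of growth.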

Legend:
Experiment in all cases: growth of human tumour cells (NCI), 48 h
786-0 renal = tested on: 786-0 renal
A498 renal = tested on: A498 renal
A549 NSCLC = tested on: A549 NSCLC
ACHN renal = tested on: ACHN renal
BT-549 breast = tested on: BT-549 breast
CAKI-1 renal = tested on: CAKI-1 renal
COLO 205 colon = tested on: COLO 205 colon
DU-145 prostate = tested on: DU-145 prostate
EKVX NSCLC = tested on: EKVX NSCLC
HCC-2998 colon = tested on: HCC-2998 colon
HCT-116 colon = tested on: HCT-116 colon
HCT-15 colon = tested on: HCT-15 colon
HL-60(TB) leukemia = tested on: HL-60(TB) leukemia
HOP-62 NSCLC = tested on: HOP-62 NSCLC
HOP-92 NSCLC = tested on: HOP-92 NSCLC
HS 578T breast = tested on: HS 578T breast
HT29 colon = tested on: HT29 colon
IGROV1 ovarian = tested on: IGROV1 ovarian
K-562 leukemia = tested on: K-562 leukemia
KM12 colon = tested on: KM12 colon
LOX IMVI melanoma = tested on: LOX IMVI melanoma
MALME-3M melanoma = tested on: MALME-3M melanoma
MCF7 breast = tested on: MCF7 breast
MDA-MB-231 breast = tested on: MDA-MB-231 breast
MDA-MB-435 = tested on: MDA-MB-435
MDA-N = tested on: MDA-N
MOLT-4 leukemia = tested on: MOLT-4 leukemia
NCI-H226 lung = tested on: NCI-H226 lung
NCI-H23 lung = tested on: NCI-H23 lung
NCI-H460 lung = tested on: NCI-H460 lung
NCI-H522 lung = tested on: NCI-H522 lung
NCI/ADR-RES ovarian = tested on: NCI/ADR-RES ovarian
OVCAR-3 ovarian = tested on: OVCAR-3 ovarian
OVCAR-4 ovarian = tested on: OVCAR-4 ovarian
OVCAR-5 ovarian = tested on: OVCAR-5 ovarian
OVCAR-8 ovarian = tested on: OVCAR-8 ovarian
PC-3 prostate = tested on: PC-3 prostate
RPMI-8226 leukemia = tested on: RPMI-8226 leukemia
RXF 393 renal = tested on: RXF 393 renal
SF-268 CNS = tested on: SF-268 CNS
SF-295 CNS = tested on: SF-295 CNS
SF-539 CNS = tested on: SF-539 CNS
SK-MEL-28 melanoma = tested on: SK-MEL-28 melanoma
SK-MEL-5 melanoma = tested on: SK-MEL-5 melanoma
SK-OV-3 ovarian = tested on: SK-OV-3 ovarian
SN12C renal = tested on: SN12C renal
SNB-75 CNS = tested on: SNB-75 CNS
SR leukemia = tested on: SR leukemia
SW-620 colon = tested on: SW-620 colon
T-47D breast = tested on: T-47D breast
TK-10 renal = tested on: TK-10 renal
U251 CNS = tested on: U251 CNS
UACC-257 melanoma = tested on: UACC-257 melanoma
UACC-62 melanoma = tested on: UACC-62 melanoma
UO-31 renal = tested on: UO-31 renal
CCRF-CEM leukemia = tested on: CCRF-CEM leukemia
M14 melanoma = tested on: M14 melanoma
SK-MEL-2 melanoma = tested on: SK-MEL-2 melanoma
SNB-19 CNS = tested on: SNB-19 CNS

Measured: TGI

Cc1ccc(C2=Nn3c(nc4sc(C)c(C)c4c3=O)SC2)cc1
85.3 µM: TK-10 renal
not listed: CCRF-CEM leukemia | M14 melanoma | SK-MEL-2 melanoma | SNB-19 CNS
> 100 µM: all other assays above

c1ccc(-c2nnc(-c3ccccn3)c3c2C[C@@H]2C[C@@H]4Cc5c(-c6ccccn6)nnc(-c6ccccn6)c5[C@@H]4[C@H]32)nc1
6.35 µM: A498 renal
88 µM: NCI-H460 lung
89.1 µM: U251 CNS
75.9 µM: SK-MEL-28 melanoma
36.8 µM: EKVX NSCLC
43.6 µM: M14 melanoma
58.8 µM: HL-60(TB) leukemia
> 100 µM: all other assays above
